The source made the active and inactive calls.
How the values were obtained:
[1] = reduction of Shn3 3'UTR-driven luciferase in osteoblasts – cell-based, Clone20 osteoblasts, firefly luciferase, cherry-picked, dose response (AID 624132); type: functional;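 further: firefly luciferase luminescence from reporter carrying the Shn3 3'UTR in osteoblasts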
[2] = system: BJ; assay: BJ-TERT fibroblast viability loss – cell-based, RAS-independent, luminescence, dose response (AID 1933); type: functional; conditions: Homo sapiens
[3] = system: BJ; assay: BJ-TERT-LT-ST fibroblast viability loss – cell-based, RAS-independent, luminescence, dose response (AID 1935); type: functional; conditions: Homo sapiens;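 further: BJ fibroblasts immortalized with TERT plus LT and ST oncogenes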
[4] = DRD fibroblast viability loss – cell-based, non-viral oncogenic, luminescence, dose response (AID 1934); type: functional; conditions: Homo sapiens
[5] = system: BJ; assay: cells; type: functional, cell-based; conditions: Homo sapiens
[6] = target: Luciferin 4-monooxygenase (Photinus pyralis, UniProt P08659); assay: inhibition of purified Photinus pyralis luciferase – biochemical, luminescence, dose response (AID 1891)
Luciferin 4-monooxygenase, sequence (P08659 whole entry): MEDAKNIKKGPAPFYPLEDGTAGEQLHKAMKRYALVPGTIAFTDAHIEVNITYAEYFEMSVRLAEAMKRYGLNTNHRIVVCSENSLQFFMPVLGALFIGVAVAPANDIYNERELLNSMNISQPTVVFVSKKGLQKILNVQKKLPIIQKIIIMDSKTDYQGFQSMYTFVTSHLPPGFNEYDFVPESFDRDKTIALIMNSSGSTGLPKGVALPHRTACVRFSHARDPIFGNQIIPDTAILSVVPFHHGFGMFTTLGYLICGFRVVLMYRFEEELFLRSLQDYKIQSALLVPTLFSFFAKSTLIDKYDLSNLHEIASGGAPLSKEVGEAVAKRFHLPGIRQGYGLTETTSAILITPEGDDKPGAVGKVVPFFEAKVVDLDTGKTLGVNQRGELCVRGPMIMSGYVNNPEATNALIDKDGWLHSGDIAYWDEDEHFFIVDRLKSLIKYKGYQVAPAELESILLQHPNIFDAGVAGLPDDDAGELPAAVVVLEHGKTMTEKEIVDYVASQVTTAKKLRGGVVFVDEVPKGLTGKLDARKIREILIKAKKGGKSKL

[7] = Luminescence Cell-Based Dose Confirmation HTS to Identify Inhibitors of Platelet Dense Granule Release. [Related pubchem assays: 1663 (Primary HTS), 1678 (Summary of Project)]; type: functional
[8] = target: T1, Aminopeptidase N (Plasmodium falciparum FcB1/Columbia, UniProt O96935); assay: malaria alanyl aminopeptidase activity blockers – biochemical, fluorogenic H-Leu-NHMec substrate, 1536-well (AID 1445); set-up: species or system Plasmodium falciparum 3D7, 3D7
T1 sequence (O96935 whole entry): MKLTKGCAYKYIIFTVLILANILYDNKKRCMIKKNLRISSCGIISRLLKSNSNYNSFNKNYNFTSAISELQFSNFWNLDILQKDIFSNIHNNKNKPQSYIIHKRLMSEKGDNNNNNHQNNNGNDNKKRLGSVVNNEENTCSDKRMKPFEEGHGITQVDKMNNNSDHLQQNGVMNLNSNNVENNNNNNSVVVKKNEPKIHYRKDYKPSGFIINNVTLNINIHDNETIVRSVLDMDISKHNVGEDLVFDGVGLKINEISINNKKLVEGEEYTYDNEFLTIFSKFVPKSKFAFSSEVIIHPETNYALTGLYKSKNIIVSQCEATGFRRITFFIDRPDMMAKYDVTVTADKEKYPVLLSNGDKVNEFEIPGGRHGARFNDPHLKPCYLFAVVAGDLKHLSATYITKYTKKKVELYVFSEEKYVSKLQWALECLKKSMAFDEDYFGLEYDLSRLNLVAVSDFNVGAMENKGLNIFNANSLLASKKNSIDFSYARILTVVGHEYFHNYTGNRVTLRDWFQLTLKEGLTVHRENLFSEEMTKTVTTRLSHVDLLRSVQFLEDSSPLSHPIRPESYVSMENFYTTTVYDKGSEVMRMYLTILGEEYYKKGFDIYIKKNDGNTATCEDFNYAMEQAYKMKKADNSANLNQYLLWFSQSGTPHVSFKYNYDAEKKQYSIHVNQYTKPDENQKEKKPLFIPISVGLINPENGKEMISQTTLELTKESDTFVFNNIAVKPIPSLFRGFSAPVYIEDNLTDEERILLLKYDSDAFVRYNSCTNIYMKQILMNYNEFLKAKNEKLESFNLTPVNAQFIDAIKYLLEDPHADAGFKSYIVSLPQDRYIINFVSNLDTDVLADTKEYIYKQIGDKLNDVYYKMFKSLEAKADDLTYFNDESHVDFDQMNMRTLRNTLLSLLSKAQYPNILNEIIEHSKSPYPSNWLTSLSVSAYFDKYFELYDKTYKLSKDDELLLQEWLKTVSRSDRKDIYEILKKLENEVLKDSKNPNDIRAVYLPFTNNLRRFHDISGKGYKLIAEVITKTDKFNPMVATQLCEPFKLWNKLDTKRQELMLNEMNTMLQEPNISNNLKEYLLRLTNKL

[9] = target: Nonstructural protein 1 (Influenza A virus, UniProt Q194T2); type: functional, Influenza A virus (A/California/07/2009(H1N1))
Nonstructural protein 1, sequence (Q194T2 whole entry): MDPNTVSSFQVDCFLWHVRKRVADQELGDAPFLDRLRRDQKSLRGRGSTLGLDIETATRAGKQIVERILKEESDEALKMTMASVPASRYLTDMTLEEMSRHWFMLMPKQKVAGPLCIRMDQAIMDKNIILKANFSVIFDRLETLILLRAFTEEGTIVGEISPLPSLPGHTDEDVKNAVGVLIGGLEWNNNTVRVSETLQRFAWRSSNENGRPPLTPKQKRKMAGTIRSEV

[10] = viability of PTEN-deleted HCT116 cells – cell-based, HCT116 PTEN knockout, dose response (AID 1047); type: functional;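 further: HCT116 colon tumor cells with PTEN knocked out; cells exposed to compound for 60 hours before readout; potency for loss of cell viability measured by luminescence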
[11] = viability of HCT116 lacking mutant beta-catenin – cell-based, human colon tumor, dose response (AID 1045); type: functional;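 further: HCT116 colon tumor cells with beta catenin knocked out; cells exposed to compound for 60 hours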
[12] = NIH-3T3 fibroblast cytotoxicity, dose response, cytotoxicity control, cell-based, fluorescence, Alamar Blue, secondary assay (AID 2327); type: functional;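 further: NIH-3T3 mouse fibroblasts cultured with fluconazole at 8 µg/mL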
[13] = blockers of HIV-1 envelope-mediated cell-cell fusion – cherry-pick, dose response (AID 652057); type: functional, cell-based
[14] = P. falciparum Dd2 growth inhibitors, dose response, SYBR Green, cherry-picked samples (AID 1159567); type: functional, cell-based
[15] = target: T2, Replicative DNA helicase DnaB (Mycobacterium tuberculosis, UniProt P9WMR3); assay: DnaB intein splicing inhibitors, dose response, biochemical, cell-free fluorescence (AID 449749); type: functional
T2 sequence (P9WMR3 whole entry): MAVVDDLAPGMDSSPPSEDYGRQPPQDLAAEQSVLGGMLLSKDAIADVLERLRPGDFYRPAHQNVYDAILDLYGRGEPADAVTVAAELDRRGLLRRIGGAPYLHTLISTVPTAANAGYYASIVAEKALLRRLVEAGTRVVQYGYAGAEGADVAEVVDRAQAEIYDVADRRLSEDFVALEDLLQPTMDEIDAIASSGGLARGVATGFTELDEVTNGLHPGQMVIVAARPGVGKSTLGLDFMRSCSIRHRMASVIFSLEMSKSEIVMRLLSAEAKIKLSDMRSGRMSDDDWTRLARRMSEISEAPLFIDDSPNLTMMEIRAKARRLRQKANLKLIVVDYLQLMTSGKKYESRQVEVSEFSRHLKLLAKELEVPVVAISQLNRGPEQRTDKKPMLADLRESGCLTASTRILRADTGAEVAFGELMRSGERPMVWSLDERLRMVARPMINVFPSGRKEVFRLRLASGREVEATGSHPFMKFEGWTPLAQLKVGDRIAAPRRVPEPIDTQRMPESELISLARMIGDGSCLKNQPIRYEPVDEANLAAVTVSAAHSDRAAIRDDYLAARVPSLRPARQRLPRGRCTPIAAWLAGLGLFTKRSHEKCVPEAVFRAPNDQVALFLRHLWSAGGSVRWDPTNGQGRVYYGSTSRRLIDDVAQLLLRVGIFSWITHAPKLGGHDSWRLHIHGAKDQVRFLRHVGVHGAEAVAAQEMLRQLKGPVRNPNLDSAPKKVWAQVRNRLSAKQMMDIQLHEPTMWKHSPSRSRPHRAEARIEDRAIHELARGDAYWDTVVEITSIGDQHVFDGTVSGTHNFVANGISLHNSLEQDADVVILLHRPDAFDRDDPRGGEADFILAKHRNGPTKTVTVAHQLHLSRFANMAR

[16] = target: T3, Protein RecA (Mycobacterium tuberculosis, UniProt P9WHJ3); assay: Fluorescence Cell-Free Homogeneous Dose Retest to Identify Inhibitors of RecA-Intein Splicing Activity. [Related pubchem assays (depositor defined):AID2097, AID2223, AID489010, AID492950]; type: functional
T3 sequence (P9WHJ3 whole entry): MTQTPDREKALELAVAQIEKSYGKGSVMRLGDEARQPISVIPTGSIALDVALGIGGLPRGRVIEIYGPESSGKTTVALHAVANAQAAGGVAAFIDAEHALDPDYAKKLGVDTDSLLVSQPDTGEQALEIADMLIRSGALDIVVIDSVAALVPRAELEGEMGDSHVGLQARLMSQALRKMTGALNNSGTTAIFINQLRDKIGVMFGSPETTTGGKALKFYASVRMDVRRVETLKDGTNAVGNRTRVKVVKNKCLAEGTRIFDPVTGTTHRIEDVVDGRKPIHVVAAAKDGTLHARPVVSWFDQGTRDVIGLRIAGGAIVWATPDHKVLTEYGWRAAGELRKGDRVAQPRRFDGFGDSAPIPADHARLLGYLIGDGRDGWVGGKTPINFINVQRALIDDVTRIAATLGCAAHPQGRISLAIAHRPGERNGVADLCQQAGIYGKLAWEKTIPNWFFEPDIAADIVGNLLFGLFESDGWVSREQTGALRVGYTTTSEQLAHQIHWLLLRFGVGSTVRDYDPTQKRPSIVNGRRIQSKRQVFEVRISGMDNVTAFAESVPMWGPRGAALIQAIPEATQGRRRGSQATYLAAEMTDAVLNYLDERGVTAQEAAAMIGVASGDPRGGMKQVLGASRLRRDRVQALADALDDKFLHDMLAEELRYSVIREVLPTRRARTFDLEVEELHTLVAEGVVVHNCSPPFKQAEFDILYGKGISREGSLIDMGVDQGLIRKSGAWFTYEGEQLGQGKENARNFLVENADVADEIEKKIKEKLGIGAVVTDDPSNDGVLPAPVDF

[17] = system: Vero; assay: cells; type: functional; conditions: Chlorocebus sabaeus

Question: Which AC50 [1] does the source give for CC(C)(C)C(=O)Nc1cc(S(=O)(=O)N2CCCCC2)ccc1N1CCCCC1 here?
Answer: 23.1 µM (active)

Question: With COc1ccccc1C(=O)N1CCN(c2cccc(Cl)c2)CC1 as the molecule, how does the EC50 [2] read?
Answer: 1.79 µM (active)

Question: What about the EC50 [3] of the same molecule?
Answer: 0.833 µM (inconclusive)

Question: What about the EC50 [4] of the same molecule?
Answer: 1.37 µM (active)

Question: What about the EC50 [5] of the same molecule?
Answer: 38.6 µM (inconclusive)

Question: With O=C(Nc1ccc(-c2nc3ccccc3o2)cc1)C1CCCO1 (stereo not drawn) as the molecule, how does the EC50 [6] read?
Answer: 2.6 µM (active)

Question: What about the EC50 [7] of the same molecule?
Answer: 2.58 µM (active)

Question: Which IC50 [8] does the source give for CC(=O)N1N=C(c2c(-c3ccccc3)c3cc(Br)ccc3[nH]c2=O)CC1c1ccco1 (stereo not drawn) here?
Answer: 58.8 µM (active)

Question: What does the source list for Cc1ccc2nc(NC(=O)CN3C(=O)NC4(CCCC4)C3=O)sc2c1?
Answer: EC50 [6]: 80 µM (active); EC50 [7]: > 112 µM (not active)

Question: For Cc1cc(N(C)N)nc(NC(=O)NS(=O)(=O)c2ccccc2Cl)n1, which IC50 [9] is on record?
Answer: 5.96 µM (active)

Question: Which results are given for O=C1Nc2ccccc2Nc2ncccc21?
Answer: EC50 [6]: > 112 µM (not active); EC50 [7]: > 112 µM (not active)

Question: For COc1cc(C(c2sc3nc(C)nn3c2O)N2CCOCC2)cc(OC)c1OC (stereo not drawn), which EC50 [6] is on record?
Answer: > 112 µM (not active)

Question: And the EC50 [7]?
Answer: 18.6 µM (active)

Question: For CC1CCCCN1S(=O)(=O)c1ccc(C(=O)Nc2ccccc2-c2nc3ccccc3[nH]2)cc1 (stereo not drawn), which EC50 [10] is on record?
Answer: 17 µM (active)

Question: What about the EC50 [11] of the same molecule?
Answer: 25.5 µM (active)

Question: For CCC(C)(C)NC(=O)CN(Cc1ccc2c(c1)OCO2)C(=O)CCC(=O)Nc1ccccn1, which IC50 [8] is on record?
Answer: 67 µM (active)

Question: Which EC50 [10] does the source give for COc1cc(/C=C/C(=O)c2cccc([N+](=O)[O-])c2)cc(OC)c1OC here?
Answer: 3.46 µM (active)

Question: What about the EC50 [11] of the same molecule?
Answer: 2.7 µM (active)

Question: With CC(=O)Nc1cccc(NC(=O)C2CCCN2C(=O)Nc2ccc(Cl)cc2)c1 (stereo not drawn) as the molecule, how does the IC50 [8] read?
Answer: 84.1 µM (active)

Question: And the EC50 [12]?
Answer: > 160 µM (inactive)

Question: With C[C@H](CO)N1C[C@H](C)[C@H](CN(C)S(=O)(=O)c2ccc(C#N)cc2)Oc2ncc(/C=C/c3ccccc3)cc2C1=O as the molecule, how does the AC50 [13] read?
Answer: 7.61 µM (active)

Question: Which AC50 [14] does the source give for COc1ccc2c3c([nH]c2c1)[C@@H](CO)N(Cc1ccc(Cl)cc1)CC31CCN(Cc2nccs2)CC1 here?
Answer: 4.65 µM (active)

Question: Which AC50 [15] does the source give for COc1cc(/C=C2\C(=O)N(c3ccc(NC(C)=O)cc3)N=C2c2ccccc2)ccc1O here?
Answer: > 380 µM (inactive)

Question: And the EC50 [16]?
Answer: > 380 µM (inconclusive)

Question: For COc1cc(OC)c(-c2nnc3n(CCc4ccccc4)c(=O)c4ccccc4n23)cc1OC, which EC50 [6] is on record?
Answer: > 112 µM (not active)

Question: And the EC50 [7]?
Answer: > 112 µM (not active)

Question: With O=C(CNCc1ccccn1)Nc1ccc([N+](=O)[O-])cc1C(=O)Nc1ccccc1F as the molecule, how does the IC50 [9] read?
Answer: 5.49 µM (active)

Question: Which EC50 [6] does the source give for CCOc1ccccc1N1CC(C(=O)Nc2nccs2)CC1=O (stereo not drawn) here?
Answer: > 112 µM (not active)

Question: And the EC50 [7]?
Answer: > 112 µM (not active)

Question: For CC1(C)Cc2c(sc3nc(-c4cccs4)n(N)c(=O)c23)CO1, which EC50 [10] is on record?
Answer: 16.7 µM (active)

Question: And the EC50 [11]?
Answer: 23.9 µM (active)

Question: With COc1ccc(C(=O)Nc2ccccc2C(=O)N(Cc2ccco2)C(C(N)=O)C(C)C)cc1 (stereo not drawn) as the molecule, how does the EC50 [10] read?
Answer: 6.76 µM (active)

Question: What about the EC50 [11] of the same molecule?
Answer: 9.3 µM (active)

Question: What does the source list for O=C(/C=C/c1ccc(Cl)cc1Cl)c1cccnc1?
Answer: EC50 [10]: 7.26 µM (active); EC50 [11]: 5.09 µM (active); CC50 [17]: > 25 µM (active)

Question: What does the source list for CCCOc1ccc(/C=N/Nc2ccccc2[N+](=O)[O-])c(O)c1?
Answer: EC50 [2]: 11.3 µM (active); EC50 [3]: > 150 µM (inconclusive); EC50 [4]: 10.1 µM (active); EC50 [5]: 12.2 µM (active)

Question: Which results are given for CCCc1nnc(NC(=O)CCC(=O)N2CCN(Cc3ccc(OC)c(F)c3)CC2)s1?
Answer: EC50 [2]: 25.9 µM (active); EC50 [3]: > 150 µM (not active); EC50 [4]: > 150 µM (not active); EC50 [5]: > 150 µM (inconclusive)

Question: With C/C(CC(=O)Nc1cc(C)ccn1)=N\NC(=O)c1cccc(C)c1 as the molecule, how does the AC50 [15] read?
Answer: 9.58 µM (active)

Question: What about the EC50 [16] of the same molecule?
Answer: 4.04 µM (active)

Source: ChEMBL document CHEMBL1201862, “PubChem BioAssay data set” (2004)
